In patent US10410851B2, “Matrix-assisted laser desorption mass spectrometry of high molecular weight polyoxyethylene derivative” (NOF CORPORATION, priority 2015, dated 2019):
One block for each compound: values may come before it.

Experiment: 1-octanol/water partition coefficient (logPow) of the matrix by the high-performance liquid chromatography method, OECD Test Guideline 117
Format: physicochemical
Conditions: HPLC method of OECD Test Guideline 117, matrix for MALDI mass spectrometry
Text: The low polar matrix for MALDI mass spectrometry which can be used in the invention is a low polar matrix having a 1-octanol/water partition coefficient from 4.1 to 4.8 (more preferably from 4.3 to 4.8). The 1-octanol/water partition coefficient of the matrix is a numerical value measured by the high-performance liquid chromatography method described in OECD Test Guideline 117.

SMILES: C/C(C=C(C#N)C#N)=C\c1ccc(C(C)(C)C)cc1 [Trans-2-[3-(4-tert-butylphenyl)-2-methyl-2-propenylidene]malononitrile]
1-octanol/water partition coefficient (logPow): 4.6

SMILES: N#CC(=Cc1ccc(O)cc1)C(=O)O [α-cyano-4-hydroxycinnamic acid]
chromatographic logP: 0.9

chromatographic logP (1-octanol/water): 0.6
SMILES: O=C(O)c1cc(O)ccc1O [2,5-dihydroxybenzoic acid]
